Measured values as given in patent US12337000B2, “Therapeutic modulators of the reverse mode of ATP synthase” (priority 2017, dated 2025).

Columns and labels:
[1] = humans [121]; cited from earlier work
[2] = cited from earlier work
[3] = Human pharmacokinetics of oral almitrine dimesylate; format: in vivo; settings: 0.6*17, after 200 mg oral dose
[4] = biological target: F1F0 ATP synthesis and hydrolysis (Homo sapiens, UniProt P06576+P25705); settings: isolated mitochondria, no matter how great the concentration [114]; cited from earlier work
[5] = 30 year pharmacovigilance survey in France, oral, multi-year use [120]

C=CCNc1nc(NCC=C)nc(N2CCN(C(c3ccc(F)cc3)c3ccc(F)cc3)CC2)n1 [almitrine]
volume of distribution (VD) [1]: 17 L/kg
peripheral neuropathy [2, 5]: 2,304 cases
weight loss [2, 5]: 795 cases
share of presenting cases categorised as serious [2, 120]: < 10%
patients with reversible lactic acidosis and hepatic dysfunction ([2]; intravenous 459±155 mg within 24 hours, 25 patients [127]): 30%
mean onset of adverse reactions ([2]; oral, chronic use [120]): 11 months
corresponding tissue concentration (assuming uniform) [3]: ~10 µM
maximal decrease in F1F0 ATP synthesis and hydrolysis [4]: ~60%
